{"source": "patent US20100305183A1", "about": "“METHOD AND COMPOSITION FOR REDUCING REPERFUSION INJURY” (Adelaide Research & Innovation Pty Ltd, priority 2006, published 2010)", "format_in_all_cases": "in vivo", "key": {"blood brain barrier [1]": {"tested_on": "blood brain barrier", "experiment": "Blood brain barrier permeability induced by injection of tPA in naïve (uninjured) animal", "details": "FIG. 2"}, "[2]": {"tested_on": "IL-1β, IL-6 and TNFα mRNA", "experiment": "RT-PCR of inflammatory cytokine mRNA in brain tissue after hypoxia and hypotension", "details": "rats, 10^−5 mol/kg intravenous after hypoxia and hypotension, 6 hours after injury, normalised to rpL32", "experimental": "In order to induce the inflammatory response associated with reperfusion, anaesthetised rats were subject to 15 minutes of hypoxia (PAO2 30-40 mmHg) and hypotension (MABP 40 mmHg), before blood oxygen level and blood pressure were restored to normal levels. In order to examine the effects of a substance P antagonist on the inflammatory response, N-acetyl-L-tryptophan was administered intravenously at a dose of 10^−5 mol/kg after hypoxia and hypotension. The expression of mRNA for the inflammatory cytokines IL-1β, IL-6 and TNFα in brain tissue was determined by reverse transcription followed by a polymerase chain reaction (RT-PCR). mRNA levels were normalised with respect to expression of rpL32. Brain tissue samples were collected at 6 hours after injury. Levels of expression of mRNA for the inflammatory cytokines were compared between non-ischaemic animals (control), ischaemic animals administered drug vehicle alone (ischaemia), and ischaemic animals administered a substance P receptor antagonist (NK1). mRNA expression was determined for IL-1β (FIG. 5a), IL-6 (FIG. 5b) and TNFα (FIG. 5c)."}, "[3]": {"tested_on": "rats subject to ischaemia/reperfusion injury", "experiment": "Oedema after reversible stroke (intraluminal thread model of middle cerebral artery occlusion) and reperfusion", "details": "2 h occlusion, 10^−5 mol/kg intravenous 2 h after reperfusion, FIG. 3", "experimental": "To this end, anaesthetised rats were subject to 2 hours reversible stroke using the intraluminal thread model of middle cerebral artery occlusion. At 2 hours, reperfusion was initiated by withdrawing the thread and following a further 2 hours, N-acetyl-L-tryptophan (10^−5 mol/kg) was administered by intravenous injection. There was a significant increase in oedema at 24 h following ischaemia/reperfusion injury."}, "[4]": {"tested_on": "rats subject to ischaemia/reperfusion injury", "experiment": "Rotarod test of motor function after reversible stroke and reperfusion", "details": "2 h occlusion, over ensuing 7 days, FIG. 4", "experimental": "Anaesthetised rats were subject to 2 hours reversible stroke using the intraluminal thread model of middle cerebral artery occlusion. At 2 hours, reperfusion was initiated by withdrawing the thread and following a further 2 hours, N-acetyl-L-tryptophan (10^-5 mol/kg) or […],060 (1 mg/kg) was administered by intravenous injection."}, "blood brain barrier [5]": {"tested_on": "blood brain barrier", "experiment": "Evan's blue leakage into brain tissue following injury", "details": "dose-dependent, FIG. 1", "source_text": "We chose to use the compound N-acetyl-L-tryptophan (NAT)."}, "IL-6": {"tested_on": "IL-6", "experiment": "Serum IL-6 by ELISA after hypoxia and hypotension", "details": "rats; 10^−5 mol/kg intravenous after hypoxia and hypotension; blood at 6 hours after the insult; FIG. 6", "experimental": "In order to induce the inflammatory response associated with reperfusion, anaesthetised rats were subject to 15 minutes of hypoxia (PAO2 30-40 mmHg) and hypotension (MABP 40 mmHg), before blood oxygen level and blood pressure were restored to normal levels. In addition, serum interleukin 6 levels were also determined. Blood samples were collected at 6 hours after the insult. Changes in serum IL-6 levels were quantified using an enzyme-linked immunosorbent assay (ELISA). Serum levels of IL-6 were compared between animals that were not subject to ischaemia (control), animals subject to ischaemia followed by administration of drug vehicle alone (ischaemia), and animals subject to ischaemia followed by administration of a substance P receptor antagonist (NK1) (FIG. 6)."}}}
{"compound": "tPA: tissue plasminogen activator, a thrombolytic agent", "values": [{"measurement": "permeability of the blood brain barrier after tPA alone", "setting": "blood brain barrier [1]; tPA (Actilyse) alone to naïve (uninjured) animal", "result": "increased permeability of the blood brain barrier"}]}
{"compound": "CC(=O)N[C@@H](Cc1c[nH]c2ccccc12)C(=O)O", "note": "[N-acetyl-L-tryptophan]", "values": [{"measurement": "expression of IL-1β mRNA in brain tissue with respect to non-ischaemic animals", "setting": "[2]; FIG. 5a", "result": "no significant differences"}, {"measurement": "expression of IL-6 mRNA in brain tissue with respect to non-ischaemic animals", "setting": "[2]; FIG. 5b", "result": "no significant differences"}, {"measurement": "expression of TNFα mRNA in brain tissue with respect to non-ischaemic animals", "setting": "[2]; FIG. 5c", "result": "no significant differences"}, {"measurement": "oedema at 24 h following ischaemia/reperfusion injury", "setting": "[3]", "result": "significantly attenuated"}, {"measurement": "permeability of the blood brain barrier induced by tPA", "setting": "blood brain barrier [1]; NAT 10^−5 mol/kg, tPA (Actilyse) injected to naïve (uninjured) animal", "result": "prevented the increased permeability of the blood brain barrier"}, {"measurement": "functional outcome, rotarod test of motor function", "setting": "[4]; 10^−5 mol/kg intravenous 2 h after reperfusion", "result": "profound improvement in functional outcome"}, {"measurement": "leakage of Evan's blue dye into the brain tissue (blood brain barrier closure)", "setting": "blood brain barrier [5]", "result": "reduced leakage of Evan's blue dye into the brain tissue"}, {"measurement": "increase in serum IL-6 levels", "setting": "IL-6", "result": "this response was not observed"}]}
{"compound": "FC(F)(F)c1cc(CO[C@H]2CCCN[C@H]2c2ccccc2)cc(C(F)(F)F)c1", "note": "[L733,060]", "values": [{"measurement": "functional outcome, rotarod test of motor function", "setting": "[4]; 1 mg/kg intravenous 2 h after reperfusion", "result": "improved functional outcome"}]}
